Broadly, the IC50 is the concentration that inhibits the measured activity by half. A word on the melting point: it is the temperature of the solid-liquid transition. The term inhibition denotes how much of the control response was suppressed. Low readings indicate a response near the control, high ones a response far below the control.

Where “and” joins values, the source holds several entries; their conditions need not be identical. Equal values may be shown once. Read-outs that look alike come from different tables or passages of the source.

This note sets out measurements from patent publication US8466157B2, “Proteasome inhibitors having chymotrypsin-like activity” (University of South Florida, priority 2009, dated 2013).

Data set [1] addresses T1, chymotrypsin-like activity of the purified rabbit 20S proteasome (Oryctolagus cuniculus, UniProt G1T4Q9).
T1 sequence (G1T4Q9 1-263): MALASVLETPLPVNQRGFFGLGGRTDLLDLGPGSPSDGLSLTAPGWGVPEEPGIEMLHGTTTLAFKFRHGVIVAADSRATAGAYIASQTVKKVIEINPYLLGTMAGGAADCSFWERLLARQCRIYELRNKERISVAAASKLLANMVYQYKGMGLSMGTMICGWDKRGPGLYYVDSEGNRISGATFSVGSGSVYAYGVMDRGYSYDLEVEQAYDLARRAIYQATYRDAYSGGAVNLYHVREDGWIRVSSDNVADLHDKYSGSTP
Kind of data set: 20S proteasome inhibition assay, fluorogenic substrate Suc-Leu-Leu-Val-Tyr-AMC.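 As to all read-outs here: enzyme and 20 µM substrate incubated 1 h at 37 °C in Tris-HCl buffer pH 7.6, fluorogenic read-out, inhibition calculated against vehicle control.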 Particulars: for decrease of proteasome inhibition activity: 14u, 14v vs linear-chain analogues, 14q vs lead compound 10a; for proteasome inhibitory activity, SAR statement in words: chymotrypsin-like activity, compared with lead or analogue. The data set is classed as biochemical.
Protocol: 20S Proteasome Inhibition Assay
In our work, we used chymotrypsin-like substrate Suc-Leu-Leu-Val-Tyr-AMC to test the proteasome inhibition activity of the synthesized compounds.
The assay was conducted by using a fluorogenic peptide as substrate to test synthesized compounds for inhibitory activity against the chymotrypsin-like activity of the purified rabbit 20S proteasome. Briefly, 70 ng of purified 20S proteasome was incubated with 20 μM Suc-Leu-Leu-Val-Tyr-AMC for 1 hour at 37° C. in 100 μl of assay buffer (50 mM Tris-HCl, pH 7.6) with or without inhibitors. […] The inhibitory activity of the compounds was calculated based on vehicle control.

The target of data set [2] is T2, CT-L (Homo sapiens, UniProt P28074).
T2 construct: endogenous in cells
T2 sequence (P28074 60-263): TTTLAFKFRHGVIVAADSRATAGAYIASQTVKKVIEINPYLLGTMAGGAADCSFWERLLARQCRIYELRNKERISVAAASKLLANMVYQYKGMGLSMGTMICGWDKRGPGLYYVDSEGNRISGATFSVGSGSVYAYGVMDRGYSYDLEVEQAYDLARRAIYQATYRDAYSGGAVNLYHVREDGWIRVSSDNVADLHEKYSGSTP
Kind of data set: Inhibition of CT-L in cell culture. Type of data set: cell-based. Particulars: read-out: IC50 (μM)* In Cell culture against CT-L.

[3] abbreviates: individual determinations (runs M-1096, M-1098, M-1099, AK or dated), read-out: Chymotrypsin-like Activity IC50.
Setting [4] is: mean of the individual determinations, read-out: Chymotrypsin-like Activity IC50 (μM), mean ± spread (n).

In the case of `O=C(O)CSc1cc(NS(=O)(=O)c2ccc3ccccc3c2)c2ccccc2c1O` [YG2-034-2, 2-(1-hydroxy-4-(naphthalene-2-sulfonamido)naphthalen-2-ylthio)acetic acid], the melting point lay in the range of 185 to 187 °C. In data set [1], the “decrease of proteasome inhibition activity” value is reported as 3 fold. Moreover, the IC50 in data set [1] (setting [3]) was > 10 µM and 4 µM and 5.9 µM.
`COC(=O)CCSc1cc(NS(=O)(=O)c2cccs2)c2ccccc2c1O` [9b, Methyl 3-(1-hydroxy-4-(thiophene-2-sulfonamido)naphthalen-2-ylthio)propanoate]: the melting point lay within 117 to 119 °C.
`O=S(=O)(Nc1cc(I)c(O)c2ccccc12)c1cccs1` [YG1-033, N-(3-iodo-4-hydroxynaphthalen-1-yl)thiophene-2-sulfonamide]: the melting point was in the range of 134 to 136 °C. Also, the IC50 in data set [1] (setting [3]) is 26 µM and > 100 µM and 28 µM.
As for `O=C(O)CCSc1cc(NS(=O)(=O)c2cccs2)c2ccccc2c1O` [YG1-116, 3-(1-hydroxy-4-(thiophene-2-sulfonamido)naphthalen-2-ylthio)propanoic acid], the melting point is 185 °C (dec.). Moreover, the “proteasome inhibitory activity, SAR statement in words” value (from here on “proteasome inhibitory activity”) in data set [1] is on record as “the inhibitory activity diminished”. Moreover, in data set [1] (setting [3]), the IC50 is 7.4 µM.
For the compound `O=C(O)CSc1cc(NS(=O)(=O)c2ccc(Cl)s2)c2ccccc2c1O` [YG1-153, 2-(4-(5-chlorothiophene-2-sulfonamido)-1-hydroxynaphthalen-2-ylthio)acetic acid], the IC50 in data set [2] was 8 µM and 10 µM; in data set [1] (setting [3]), 0.73 µM and 2.42 µM and 2.7 µM and 2.3 µM and 2.2 µM; in data set [1] (setting [4]), 2.07 µM.
The compound `CC(Sc1cc(NS(=O)(=O)c2ccc(Cl)cc2)c2ccccc2c1O)C(=O)O` (stereo not drawn) [YG2-024-1, 2-(4-(4-chlorophenylsulfonamido)-1-hydroxynaphthalen-2-ylthio)propanoic acid] had a melting point of 177 to 179 °C. In data set [1], the “decrease of proteasome inhibition activity” value was about 2 fold. In addition, in data set [1] (setting [3]), the IC50 was 9.5 µM and > 10 µM and 8 µM.
As for `CC(Sc1cc(NS(=O)(=O)c2ccc3ccccc3c2)c2ccccc2c1O)C(=O)O` (stereo not drawn) [YG2-024-2, 2-(1-hydroxy-4-(naphthalene-2-sulfonamido)naphthalen-2-ylthio)propanoic acid], the melting point is 176 to 178 °C. Also, the “decrease of proteasome inhibition activity” value in data set [1] is given as about 2 fold. Besides, the IC50 in data set [1] (setting [3]) was 9.6 µM and 8.45 µM.
For the compound `O=C1C(N2CCOCC2)=C/C(=N\S(=O)(=O)c2cccs2)c2ccccc21` [YG1-129, N-(3-morpholino-4-oxonaphthalen-1(4H)-ylidene)thiophene-2-sulfonamide], the melting point was 195 °C (dec.). For the same compound, in data set [1] (setting [3]), the 50% inhibitory concentration (IC50) was over 10 µM.
Take `O=C(O)CSc1cc(NS(=O)(=O)c2ccc(-c3ccccc3)cc2)c2ccccc2c1O` [YG1-152, 2-(4-(biphenyl-4-ylsulfonamido)-1-hydroxynaphthalen-2-ylthio)acetic acid]: the IC50 is > 100 µM and 83 µM in data set [2]; 0.81 µM and 2.48 µM and 2.28 µM and 1.74 µM and 2.2 µM in data set [1] (setting [3]); 1.9 µM in data set [1] (value quoted in running text / FIG. 11, read-out: IC50 against chymotrypsin-like proteasome activity).
For `O=C(O)CSc1cc(NS(=O)(=O)c2cc(Cl)c(Cl)s2)c2ccccc2c1O` [HL4-098-2, 2-(4-(4,5-dichlorothiophene-2-sulfonamido)-1-hydroxynaphthalen-2-ylthio)acetic acid], the IC50 was 25 µM and 17.4 µM in data set [2]; 1.05 µM and 2.4 µM and 2.67 µM in data set [1] (setting [3]).
Consider `COC(=O)CCSC1=C/C(=N\S(=O)(=O)c2cccs2)c2ccccc2C1=O` [8b, Methyl 3-(1-oxo-4-(thiophen-2-ylsulfonylimino)-1,4-dihydronaphthalen-2-ylthio) propanoate], for which the melting point lay in the range of 140 to 142 °C.
Still for that read-out and setting: under `CCOC(=O)CSc1cc(NS(=O)(=O)c2ccc(-c3ccccc3)cc2)c2ccccc2c1O` [14r, Ethyl 2-(4-(biphenyl-4-ylsulfonamido)-1-hydroxynaphthalen-2-ylthio)acetate] stands 166 to 168 °C.
As for `O=C1C(Sc2ncn[nH]2)=C/C(=N\S(=O)(=O)c2cccs2)c2ccccc21` [YG1-158-2, N-(3-(1H-1,2,4-triazol-5-ylthio)-4-oxonaphthalen-1(4H)-ylidene)thiophene-2-sulfonamide], the melting point is 197 °C (dec.). Moreover, the IC50 in data set [1] (setting [3]) was 1.34 µM and 4.38 µM and 3.85 µM and 2.1 µM and 2.09 µM. Moreover, the IC50 in data set [1] (setting [4]) was 2.75 µM.
`O=C(O)c1ccccc1Sc1cc(NS(=O)(=O)c2cccs2)c2ccccc2c1O` [YG1-155, 2-(1-hydroxy-4-(thiophene-2-sulfonamido)naphthalen-2-ylthio)benzoic acid]: the melting point was 215 °C (dec.). Further, the IC50 in data set [1] (setting [3]) was 1.12 µM and 4.6 µM and 5.32 µM and 7.7 µM and 7.1 µM and 1.04 µM and 1.5 µM. The half-inhibitory concentration (IC50) in data set [1] (setting [4]) was found to be 4.05 µM.
Turning to `CCOC(=O)CSC1=C/C(=N\S(=O)(=O)c2ccccc2)c2ccccc2C1=O` [YG1-110, Ethyl 2-(1-oxo-4-(phenylsulfonylimino)-1,4-dihydronaphthalen-2-ylthio)acetate], the melting point is 93 to 95 °C. For the same compound, the IC50 in data set [1] (setting [3]) is 1.04 µM and 1.86 µM and 2.06 µM and 2.35 µM and 3.8 µM. Also, in data set [1] (setting [4]), the IC50 was determined as 2.22 µM.
In turn, `CCOC(=O)CSc1cc(NS(=O)(=O)c2ccccc2)c2ccccc2c1O` [YG1-113, Ethyl 2-(1-hydroxy-4-(phenylsulfonamido)naphthalen-2-ylthio)acetate] registered a melting point of 118 to 120 °C. In addition, the “proteasome inhibitory activity” value in data set [1] was “reduced compared to acid analogues”. The IC50 in data set [1] (setting [3]) was 1.74 µM and 7 µM and 8.7 µM and 2.75 µM and 6.4 µM.
In the case of `CC(C)(C)OC(=O)COC1=CC(=O)c2ccccc2C1=O` [YL2-013, tert-Butyl 2-(1,4-dioxo-1,4-dihydronaphthalen-2-yloxy)acetate], the melting point is 120 to 122 °C. Besides, the IC50 in data set [1] (setting [3]) was over 10 µM.
For the compound `CC(C)(C)OC(=O)COC1=C/C(=N\S(=O)(=O)c2cccs2)c2ccccc2C1=O` [YL2-023, tert-Butyl-2-(1-oxo-4-(thiophen-2-ylsulfonylimino)-1,4-dihydronaphthalen-2-yloxy)acetate], in data set [1] (setting [3]), the IC50 was over 10 µM.
On the same count and under the same terms, under `CCOC(=O)CS(=O)(=O)c1cc(NS(=O)(=O)c2cccs2)c2ccccc2c1O` [YG1-133, Ethyl 2-(1-hydroxy-4-(thiophene-2-sulfonamido)naphthalen-2-ylsulfonyl)acetate] stands 8.2 µM and > 10 µM (2×).
Still for that read-out and setting: under `O=C(O)CSc1ccc(NS(=O)(=O)c2cccs2)c2ccccc12` [YG3-007, 2-(4-(thiophene-2-sulfonamido)naphthalen-1-ylthio)acetic acid] stands over 10 µM.
Consider `CCSC1=C/C(=N\S(=O)(=O)c2cccs2)c2ccccc2C1=O` [YG2-086-1, N-(3-(ethylthio)-4-oxonaphthalen-1(4H)-ylidene)thiophene-2-sulfonamide], for which the IC50 in data set [1] (setting [3]) was 9.4 µM and 9.85 µM.
Take `CCOC(=O)CSC1=CC(=O)c2ccccc2C1=O` [YG1-059, Ethyl 2-(1,4-dioxo-1,4-dihydronaphthalen-2-ylthio)acetate]: in data set [1] (30 μM, runs M-1096, M-1098, M-1099), the inhibition at 30 µM was determined as 49%. Further, the IC50 in data set [1] (setting [3]) is over 100 µM.
In the case of `O=C(O)c1ccccc1Sc1cc(NS(=O)(=O)c2ccc(-c3ccccc3)cc2)c2ccccc2c1O` [YG1-168, 2-(4-(biphenyl-4-ylsulfonamido)-1-hydroxynaphthalen-2-ylthio)benzoic acid], the melting point was 205 °C (dec.). Also, in data set [1] (setting [3]), the IC50 is 2.32 µM and 2.44 µM and 1.84 µM.
Turning to `CCOC(=O)CSc1cc(NS(=O)(=O)c2cccs2)c2ccccc2c1O` [9a, Ethyl 2-(1-hydroxy-4-(thiophene-2-sulfonamido)naphthalen-2-ylthio)acetate], in data set [1], the “proteasome inhibitory activity” value is recorded as “reduced compared to acid analogues”.
`CCOC1=C/C(=N\S(=O)(=O)c2cccs2)c2ccccc2C1=O` [YG1-122, N-(3-ethoxy-4-oxonaphthalen-1(4H)-ylidene)thiophene-2-sulfonamide]: the IC50 in data set [1] (setting [3]) is over 10 µM.
